The values that follow come from article PMC6270778, “Novel Cinnamic Acid Derivatives as Antioxidant and Anticancer Agents: Design, Synthesis and Modeling Studies” (Molecules, 2014).

The structures appear in SMILES notation.

A short description of test [1]: Hydroxyl radicals scavenging activity (Fe3+/ascorbic acid system, competition with DMSO). The conditions noted are these: 0.1 mM; no = no action under the used experimental conditions. As for the experimental part: Thus we evaluated our acids for their competition with DMSO for ˙OH radicals was measured, hydroxyl radicals were produced by the Fe^3+/ascorbic acid system and expressed as percent inhibition of formaldehyde formation at 0.1 mM concentration (Table 3).
The hydroxyl radicals were produced by the Fe ^3+/ascorbic acid system. EDTA (0.1 mM), Fe ^3+ (167 μM), DMSO (33 mM) in phosphate buffer (50 mM, pH 7.4), the tested compounds (0.1 mM) and ascorbic acid (10 mM) were mixed in test tubes. The solutions were incubated at 37 °C for 30 min. The reaction was stopped by CCl3COOH (17% w/v) (Table 4) and the % scavenging activity of the tested compounds for hydroxyl radicals was given.

A short description of test [2]: ABTS+ decolorization assay. Particulars: 0.1 mM. As for the experimental part: The ABTS^•+ is derived from the oxidation of ABTS by potassium persulfate. It is a decolorization assay. The addition of electron-donating antioxidants leads to ABTS^•+ reduction. The chemistry taking place involves the direct generation of the ABTS^•+ with no involvement of an intermediary radical.
In this assay, ethanol is used for the dilution of the ABTS^+• solution. ABTS is dissolved in water to a 7 mM and reacts with 2.45 mM […] to produce the ABTS radical cation (ABTS^+•) by allowing the mixture to stand in the dark at room temperature for 12–16 h before use. Ten μL of diluted ABTS^+• solution (734 nm) is added to 10 μL of antioxidant compounds or Trolox standards (final concentration 0–0.1 mM) in ethanol and the absorbance is measured at 30 °C exactly 1 min after the initial mixing (Table 3).

Test [3] in a line: Inhibition of linoleic acid peroxidation (AAPH). Particulars: 0.1 mM. The text has this:
For the in vitro study of the free radical production, azo compounds generating free radicals through spontaneous thermal decomposition are used. The water soluble 2,2'-azobis(2-amidinopropane) hydrochloride (AAPH) is recommended as appropriate for measuring radical-scavenging activity in vitro. The activity of the peroxyl radicals produced by the action of AAPH greatly resembles to cellular activities such as lipid peroxidation. The phenyl substituted acids presented remarkable activity at 0.1 mM concentration (84%–92%) compared to the non-substituted derivatives (20%–63%).
For initiating the free radical, 2,2'-azobis(2-amidinopropane) dihydrochloride (AAPH) is used. The final solution in the UV cuvette consisted of ten microliters of the 16 mM linoleate sodium dispersion 0.93 mL of 0.05 M phosphate buffer, pH 7.4, thermostatted at 37 °C. 50 μL of 40 mM AAPH solution was added as a free radical initiator at 37 °C under air and 10 μL of the tested compounds. The oxidation of linoleic acid sodium salt results a conjugated diene hydroperoxide. The reaction is monitored at 234 nm (Table 3).

The nature of test [4]: Superoxide radical scavenging activity (non-enzymatic, PMS/NADH, NBT method). The conditions noted are these: 0.1 mM; no = no action under the used experimental conditions. As for the experimental part: The superoxide anion radical (O2^−·) is less toxic than the hydroxyl radical, but still being one of the most known toxic ROS. Two different experimental assays are followed for the determination of superoxide anion radical scavenging activity: (i) one involves an enzymatic production of superoxide anions and (ii) the other is supported by a non- enzymatic procedure. Herein the test is performed at 0.1 mM concentration, generating superoxide anion radicals by a non-enzymatically assay (Table 3). Compound 1i presented the highest activity, followed by compound 1ii (75% and 50%, respectively).
Superoxide radicals were produced non-enzymatically by mixing PMS, NADH and air–oxygen. The nitroblue tetrazolium method was used for the estimation of the produced radicals. The reaction mixture containing compounds (0.1 mM), 3 μM PMS, 78 μM NADH, and 25 μM NBT in 19 μM phosphate buffer pH 7.4 was incubated for 2 min at room temperature. The acrylic acids were preincubated for 2 min before adding NADH (Table 4) and the absorption was recorded at 560 nm.

The nature of test [5]: Interaction with the stable radical DPPH. As for the experimental part: The novel acids were studied for the antioxidant activity by the use of the sTable 2,2-diphenyl-1-picrylhydrazyl radical (DPPH) at concentrations 0.05 and 0.1 mM after 20 and 60 min (Table 2). In the DPPH assay, the dominant chemical reaction involved is the reduction of the DPPH radical by single electron transfer SET from the antioxidant. Phenolic compounds eg. […] The compounds presented reducing abilities which ranged nearly 29% (4ii), small differences were found among the compounds with time and concentration. […] Due to steric reasons the interaction of DPPH with the tested compounds is low.
To a solution of DPPH in absolute ethanol the appropriate volume of the compounds (0.05 and 0.1 mM final concentrations) dissolved in DMSO was added. The absorbance was recorded at 517 nm after 20 and 60 min at room temperature (Table 3).
(Loss of DPPH colour is used to gauge radical scavenging.)

In the case of `Cc1c(C)c2c(c(C)c1O)CCC(C)(C(=O)O)O2` (stereo not drawn) [Trolox, reference compound], in test [1], the “HO (%) (±SD)” value came to 73 ± 1.0%. For the same compound, in test [2], the “ABTS+· (%) (±SD)” value came out at 88 ± 1.7%. In test [3], the “AAPH (%) (±SD), inhibition of linoleic acid peroxidation” value is given as 63 ± 1.3%.
As to `O=C(O)/C=C/c1ccc(O)c(O)c1` [Caffeic acid, caffeic acid, reference compound], in test [4], the “O2−· (%) (±SD)” value was found to be 46 ± 0.5%.
Take `O=C1O[C@H]([C@@H](O)CO)C(O)=C1O` [Ascorbic Acid, reference compound]: in test [2], the “ABTS+· (%) (±SD)” value turned out to be 96 ± 0.9%.
As to `CC(Cc1ccc(O)c(O)c1)C(C)Cc1ccc(O)c(O)c1` (stereo not drawn) [NDGA, nordihydroguaretic acid, reference compound], the “RA % (±SD), DPPH” value in test [5] (0.05 mM, 20 min) is 85 ± 1.6%; in test [5] (0.05 mM, 60 min), 83 ± 1.1%; in test [5] (0.1 mM, 20 min), 81 ± 0.8%; in test [5] (0.1 mM, 60 min), 83 ± 0.7%.
